Reference: patent US11766472B2, “Method of treatment for hair loss” (priority 2021, dated 2023)
Where two headings read alike, the source gives them in different places. Values belong to the molecule of their own block, whether it stands above or below them.

Tests used:
[1] = tested on: hair loss (men Norwood Hamilton grade III to grade V; women Ludwig grade II and III); conditions: human, in vivo
Protocol: (§1) This controlled clinical trial compares the current treatment for hair loss within two controlled groups for both men and women against the use of one embodiment of the nutritional therapy regimen described herein. One hundred patients in each of the 4 groups, a total of 400 patients, were followed for 1 year. The progress was evaluated every 2 months with computerized measurements of hair density, hair caliber, global photography and uniquely designed self-assessment scores.
(§2) Group 3 TM: Treatment group for 100 men (TM) and
(§3) Group 4 TW: treatment group for 100 women (TW)
(§4) Treatment groups for both men and women followed the same protocol.

hair loss = conditions: cited from earlier work
[2] = tested on: hair loss (men Norwood Hamilton grade III to grade V; women Ludwig grade II and III); test: Controlled clinical trial: minoxidil and finasteride in men, minoxidil alone in women, versus nutrient treatment regimen (Example 1); conditions: human, in vivo
Protocol: as §1, §2, §3, §4

SMILES: CC(C)(C)NC(=O)[C@H]1CC[C@H]2[C@@H]3CC[C@H]4NC(=O)C=C[C@]4(C)[C@H]3CC[C@]12C [finasteride]
Side effects observed with the control group [1]: Loss of libido was reported by a few patients
Patients having deteriorated with hair loss more than the initial status (hair loss; after one year): 17%
Improvement (hair loss; end of 1 year): 48-59%
Non-responders (hair loss; end of 1 year): 41-52%

Duration for which patients complained of hair loss (initial shedding) [1]: 8-10 weeks
SMILES: Nc1cc(N2CCCCC2)nc(N)[n+]1[O-] [minoxidil]
Side effects observed with the control group [2]: scalp irritation, dryness, itching, and frizzy hair
